US20120264810A1, “COMPOSITIONS AND METHODS FOR ENHANCING CELLULAR UPTAKE AND INTRACELLULAR DELIVERY OF LIPID PARTICLES” (The University of British Columbia, priority 2009, published 2012)

What was measured:
[1] = system: Raw264.7 cells; assay: Chloroquine / CQ-lipid LN formulations: LN uptake (SPDiO) and siRNA distribution (Cellomics, confocal); assay type: cell-based, mouse
Experimental: All lipid stocks (DSPC, PEG-s-DMG, Cholesterol, SP-DiOC18, chloroquine lipid and DLinDMA) were dissolved and maintained in 100% ethanol. Lipids were mixed together at a molar % ratio of 40:10:39.8:10:0.2 DLinDMA:PEG-s-DMG:cholesterol:DSPC:SP-DiO18 or 40:10:35.8:9:0.2 with 5% CQ-lipid or 35:10:39.8:0.2 with 5% CQ-lipid. Lipid mixture was added drop-wise to the formulation buffer (50 mM citrate, pH 4.0) to form multi lamellar vesicles (MLV). Large unilamellar vesicles (LUVs) were formed upon extrusion of MLVs through two stacked 80 nm Nuclepore polycarbonate filters using an extruder from Northern Lipids (Vancouver, BC, Canada) at ˜300 psi. In order to encapsulate siRNA, siRNA was added drop-wise to preformed vesicles and incubated at 35° C. for 30 minutes with constant mixing. Removal of ethanol and neutralization of formulation buffer were performed by dialysis in PBS for 16 hours. Distribution of size was determined by dynamic light scattering using a NICOMP 370 particle sizer (Nicomp Particle sizing Inc., Santa Barbara, Calif.). siRNA encapsulation efficiency was determined by removal of free siRNA using VivaPureD MiniH columns (Sartorius Stedim Biotech) from samples collected before and after dialysis. The encapsuted siRNA from eluants were then extracted and quantified at 260 nm. siRNA to lipid ratio was determined by measurement of cholesterol content in vesicles by using the Cholesterol E enzymatic assay from Wako Chemicals USA (Richmond, Va.).
Raw264.7 cells grown on glass coverslips were treated with 10 μg/mL Cy5-siRNA-LN/SPDiO or siRNACy3-LN/SPDiO constituted of +/−5% CQ-lipid in the presence of 35 or 40% DLinDMA. The overall uptake of LNs was monitored with SPDiO and the distribution of siRNA was monitored using either Cy5- or Cy3-labelled siRNA. Cells were fixed with 3% paraformaldehyde in PBS in the presence of Hoescht for nuclear staining for 15 minutes. Glass coverslips were mounted onto slides and analyzed by confocal microscopy (Olympus FV1000). Fluorochromes were excited at 488 nm (DiO), 594 nm (Alexa-594), 550 nm (Cy3) and at 633 nm (Cy5) and images were collected sequentially with 60× oil immersion objective lens.
Raw264.7 cells were treated with LNs consisting of 40% DLinDMA in the absence or presence of 10 or 30 μM chloroquine or formulation consisting of 35% DLinDMA with 5% CQ-lipid (˜14.7 μM chloroquine). Total lipid uptake was estimated by cellular SPDiO fluorescence. When cells were treated for 16 hours, the uptake of SPDiO was dependent on the concentration of chloroquine as well as concentration of LNs (FIG. 4A). When Raw264.7 cells were treated only with DLinDMA LNs, the intensity of SPDiO increased in respect to concentration. […] The Cy5-siRNA distribution at 16 hours was relatively more “punctate” than that at 24 hours (FIGS. 4B and C).

[2] = system: GAPDH protein expression in Raw264.7 cells; assay: GAPDH siRNA-LN knockdown by western blotting in Raw264.7 cells; assay type: cell-based, mouse
Experimental: (§1) FIG. 5: Raw264.7 cells were treated for 24 hours with siRNACy3 encapsulated in DLinDMA LNs in the presence or absence of 5% CQ-lipid. A lipid label, SPDiO, was incorporated into the LN to monitor uptake. LN uptake was assessed by (A) SPDiO fluorescence and distribution of siRNA was assessed by (B) Cy3 fluorescence using the Cellomics ArrayScan VTI. (C) Raw264.7 cells were incubated with the same LN formulations as in (B) for 24 hours at 10 μg/mL siRNACy3. siRNACy3 distribution was examined by confocal microscopy. (D) GAPDH siRNA was formulated into LN particles comprising of 40% DLinDMA with 0% CQ-lipid or 40% DLinDMA with 5% CQ-lipid. Raw264.7 cells were treated with 5, 10 and 20 μg/mL of siRNA for 48 and 72 hours. GAPDH protein expression was assessed by western blotting against anti-GAPDH and anti-actin. (E) LNCaP cells were treated accordingly as in (D).
(§2) Perhaps most importantly, we wanted to determine whether the enhanced cytosolic distribution of siRNACy3 observed with the CQ-lipid correlated to enhanced gene knockdown. Glyceraldehyde 3-phosphate dehydrogenase (GAPDH) is an ubiquitously expressed cytosolic protein and therefore knockdown efficiency of encapsulated siRNA can be tested in different cell lines (Barber et al., 2005). Raw264.7 cells were treated with LN of varying concentration of GAPDH siRNA for 24, 48 and 72 hours. Total protein was isolated and analyzed for GAPDH levels by immunoblotting. […] The function of GAPDH siRNA was specific since actin expression was unaltered (FIG. 5D). To confirm the function of the CQ-lipid in the LN-siRNA-mediated gene knockdown, GAPDH silencing was also assessed in LNCaP cells (FIG. 5E).

[3] = system: GAPDH protein expression in LNCaP cells; assay: GAPDH siRNA-LN knockdown in LNCaP cells; assay type: cell-based, human
Experimental: as §1, §2

[4] = system: Raw264.7 cells; assay: Drug screen and titration: siRNACy3-LN uptake and punctate distribution (Cellomics ArrayScan); assay type: cell-based, mouse
Experimental: (§3) Cells were fixed with 3% paraformaldehyde in PBS in the presence of Hoescht for 15 minutes. Cells were rinsed and stored in PBS supplemented with calcium chloride and magnesium sulfate. Plates were scanned and analyzed with the Cellomics ArrayScan VTI.
as §3

[5] = system: HeLa cells; assay: LNP uptake in HeLa cells (SPDiO fluorescence, Cellomics / confocal); assay type: cell-based, human; settings: for LNP uptake with cardiac glycosides: 0.05, 0.15 and 1.5 μM, 24 h
Experimental: All cell lines were seeded at 5000 to 20,000 cells/well of 96-well ViewPlate (PerkinElmer, Shelton, Conn., USA) in 100 μl of medium and were allowed to grow overnight. Fresh medium containing 5 or 10 μg/ml of siRNA encapsulated in LNP was added the next day. Small molecules were either added manually or pinned from 1000-fold stocks in DMSO using a pinning robot equipped with 0.4 mm pins (BioRobotics, Cambridge, UK). Cells were incubated for 24 h. Cells were then washed once in PBSCM (1×PBS containing […] CaCl2), fixed in 3% paraformaldehyde containing Hoescht's stain for 15 min, washed once in PBSCM and stored in 100 μl of PBSCM.
Plates were imaged using a Cellomics Arrayscan VTI HCS Reader (Thermo Scientific, Pittsburgh, Pa., USA). Images were acquired using a 20× PlanFluor objective and a XF93 filter set. Object identification and image analysis were performed using the Cellomics Compartmental Analysis algorithm. Cellular SPDiO and siRNA-Cy3 fluorescence intensities were measured for a minimum of 400 cells and the average pixel intensity was examined. For confocal microscopy, cells grown on glass coverslips were washed once in 1×PBS, fixed in 3% paraformaldehyde containing Hoechst's stain for 15 min, washed again and mounted on slides. Images were captured on an Olympus FV1000 (Olympus, Center Valley, Pa., USA) laser scanning microscope and cellular SPDiO fluorescence intensity was analyzed using ImageJ (NIH, http://rsb.info.nih.gov/ij/).

[6] = system: Na+/K+-ATPase; settings: Paula et al., 2005; cited from earlier work
[7] = system: GAPDH expression in HeLa cells; assay: siGAPDH-LNP knockdown by immunoblotting in HeLa cells; assay type: cell-based, human
Experimental: HeLa cells were plated in twelve-well plates for indicated times. They were then washed in PBS and extracted in RIPA buffer (1% NP-40 and 0.5% Deoxycholic in 1×PBS) supplemented with protease inhibitor tablets (Roche Diagnostics). Total protein quantified by the Bradford Assay was analyzed by immunoblotting using antibodies to GAPDH, β-actin (Abcam, Cambridge, Mass.) or ATP1A1 ((Millipore, Billerica, Mass.). Antigen-antibody complexes in immunoblots were detected using Millipore Immobilon Western Chemiluminescent HRP Substrate (Millipore, Billerica, Mass.).
Knockdown effect of our LNP systems in the presence or absence of ouabain was also examined (FIG. 9B). GAPDH was chosen as a target gene since it is ubiquitously expressed at high levels in all cell types. siGAPDH or negative control siScramble was encapsulated in our LNP systems and incubated with cells for 24 hrs in the presence or absence of ouabain. Cells were further incubated in plain medium for 48 hrs before protein expression was analyzed. We observed that cells incubated continuously with ouabain for longer than 24 hrs were unhealthy (data not shown). […] It is noteworthy that LNP encapsulating siGAPDH or siScramble contained 1 mol % of PEG-s-DMG. […]

[8] = target: human α1-isoform of Na+/K+-ATPase (Homo sapiens, UniProt P05023); settings: cited from earlier work
[9] = target: rodent α1-isoform of Na+/K+-ATPase (Rattus norvegicus, UniProt P06685); settings: cited from earlier work
[10] = 30 μM free chloroquine, or 35% DLinDMA LNs with 5% CQ-lipid, 16 hours

CCCCC/C=C\C/C=C\CCCCCCCCOCC(CNCCCCNc1ccnc2cc(Cl)ccc12)OCCCCCCCC/C=C\C/C=C\CCCCC (stereo not shown) [CQ-lipid]
Cy5-siRNA punctate levels [1, 10]: significant reduction
intracellular DiO accumulation (LN uptake) ([1]; 5% CQ-lipid:35% DLinDMA LN, highest dose, versus 0% CQ-lipid:40% DLinDMA): substantially reduced intracellular DiO accumulation
siRNACy3 punctate signal ([1]; 40% DLinDMA LNs with 5% CQ-lipid, 24 hours): lowered punctate signal
uptake of LN particles (SPDiO fluorescence) ([1]; 40% DLinDMA LNs with versus without 5% CQ-lipid, 24 hours): comparable intracellular SPDiO fluorescence
GAPDH protein expression ([2]; 20 μg/mL GAPDH siRNA in LN containing 5% CQ-lipid, 48 hours): decreased GAPDH protein expression
gene knockdown occurred earlier than with LN without CQ-lipid ([2]; 20 μg/ml siRNA in LN containing the CQ-lipid): 24 h
GAPDH knockdown ([2]; 24 hours): no knockdown
knockdown of GAPDH ([2]; 72 hours): more pronounced
knockdown of GAPDH ([3]; LN containing 5% CQ-lipid, 72 hours): More pronounced knockdown effect
knockdown of GAPDH ([3]; all concentrations of LN containing 5% CQ-lipid, 48 hours): Enhanced knockdown of GAPDH

CCN(CC)CCCC(C)Nc1ccnc2cc(Cl)ccc12 (stereo not shown) [Chloroquine]
Normalized Punctate Distribution ([4]; 10 μg/mL siRNACy3 in DLinDMA LN, ~10 μM drug, 24 h, normalized to absence of drug): 0.10
Normalized siRNA Uptake ([4]; 10 μg/mL siRNACy3 in DLinDMA LN, ~10 μM drug, 24 h, total Cy3 intensity normalized to absence of drug): 0.34
punctate / cytosolic distribution of siRNACy3 in titration study ([4]; drug 0-30 μM, 10 μg/mL siRNACy3-LN): significant loss of punctate distribution of siRNACy3 at 10 μM
siRNA showing punctate distribution ([1]; 10 μM chloroquine, 24 hours (without chloroquine maximum 25-30%)): ~10%
uptake of LNs (SPDiO fluorescence) ([1]; 10 μM free chloroquine, 40% DLinDMA LNs, 16 hours): no significant difference
Cy5-siRNA punctate levels ([1]; 10 μM free chloroquine, 16 hours): largely indifferent
Cy5-siRNA punctate levels [1, 10]: significant reduction

C[C@H]1O[C@@H](O[C@H]2CC[C@]3(C=O)[C@H]4CC[C@]5(C)[C@@H](C6=CC(=O)OC6)CC[C@]5(O)[C@@H]4CC[C@]3(O)C2)C[C@H](O)[C@@H]1O [Helveticoside]
LNP uptake with cardiac glycosides [5]: enhanced LNP uptake at a higher concentration
presence of LNs in cells by confocal microscopy ([5]; treated for 24 hrs): substantial amount of LNs
relative binding affinity among the 9 cardiac glycosides [6]: weakest binder

C[C@@H]1O[C@@H](O[C@@H]2C=C3CCC4C(CC[C@]5(C)[C@@H](c6ccc(=O)oc6)CC[C@]45O)[C@@]3(C)CC2)[C@H](O)[C@H](O)[C@H]1O (stereo partly shown) [Proscillaridin A]
LNP uptake with cardiac glycosides [5]: required the least amount to cause an increased LNP uptake
relative binding affinity among the 9 cardiac glycosides [6]: strongest binder

C[C@@H]1O[C@@H](O[C@H]2C[C@@H](O)[C@]3(CO)[C@H]4[C@H](O)C[C@]5(C)[C@@H](C6=CC(=O)OC6)CC[C@]5(O)[C@@H]4CC[C@]3(O)C2)[C@H](O)[C@H](O)[C@H]1O [ouabain]
GAPDH knockdown with ouabain ([3]; data not shown): enhanced GAPDH knockdown
cellular SPDiO fluorescence (LNP content) relative to untreated cells ([5]; 30 nM ouabain, 24 hrs, confocal quantification): 2.5 times
cell health on continuous incubation ([7]; incubated continuously with ouabain for longer than 24 hrs (data not shown)): unhealthy
Expression of GAPDH ([7]; siGAPDH-LNP 10 ug/ml with 30 nM ouabain 24 h, then 48 hrs fresh medium): substantially reduced
sensitivity to ouabain [8]: highly sensitive
sensitivity to ouabain, less than human α1-isoform [9]: 1000 fold
